Values quoted from earlier work as cited in patent publication US7838691B2, “Palmerolides: methods of preparation and derivatives thereof” (Board of Regents, of the University of Texas System, priority 2007, dated 2010).

Assays:
bovine brain V-ATPase = conditions: in vitro
[1] = test system: several cancer cell lines including melanoma, colon cancer, and renal cancer

## CC(C)=CC(=O)N/C=C/C(C)=C/[C@@H](C)[C@H]1C/C(C)=C/C=C/CC[C@H](OC(N)=O)[C@@H](O)/C=C/[C@@H](O)CCC/C=C/C(=O)O1 [Palmerolide A]
Bovine brain V-ATPase
  IC50: ~2 nM
[1]
  cytotoxicity: selective cytotoxin
